“Also recorded” adds a separate entry of the source. d = 2'-deoxy (DNA); m = 2'-O-methyl

The values below come from US10023864B2, “Methods of treating a metabolic syndrome by modulating heat shock protein (HSP) 90-beta” (Berg LLC, priority 2014, dated 2018).

One series has as its system human Hsp90AB1 protein. The series can be described thus: Knockdown of Hsp90AB1 protein in HSMM by Western blotting. It is filed as cell-based. Conditions: Western blot, normalized to actin, vs NC1. The protocol:
ASO1-ASO6 were tested for their ability to knock down human Hsp90AB1 levels in HSMM myotubes. The effectiveness of oligonucleotides ASO1 (A1), ASO2 (A2) ASO3 (A3) ASO4 (A4) ASO5 (A5) and ASO6 (A6) in knocking down the expression of HSP90AB1 protein is shown by Western blotting in FIGS. 19A and 19B. The oligonucleotide NC1 was used as a negative control. HSP90Ab1 protein levels were normalized to the levels of actin.
(§1) The ASO oligonucleotides ASO5, ASO13 and ASO18 were tested for their ability to reduce expression of human Hsp90AB1 protein in human skeletal muscle myotubes (HSMM) and C2C12 mouse myoblasts by Western blotting. ASO5 was derived from the mouse HSP90ab1 gene, while ASO13 and ASO18 were directed to the human HSP90ab1 gene. The oligonucleotide NC1 was used as a negative control. HSP90AB1protein levels were normalized to the levels of actin.

Series [1] relates to Hsp90AB1 protein in C2C12 mouse myoblasts. The series can be described thus: Hsp90AB1 protein expression in C2C12 mouse myoblasts by Western blotting. It is filed as cell-based. The settings on record: Western blot, normalized to actin, vs NC1. The protocol: as §1
On the technique in general: In western blotting, separated proteins are transferred to a membrane and probed.

A further series has as its system HSP90α and HSP90β. Conditions: HSP90α vs HSP90β; cited from earlier work.
The test system of series [2] is DIO mice. The series can be described thus: Heat production in DIO mice. It is filed as in vivo, mouse. The settings on record: eight weeks treatment. As for the experimental part:
The CLAMS (Columbus Instruments, Columbus, Ohio, USA) metabolic monitoring cages are used to simultaneously monitor horizontal and vertical activity, feeding and drinking, oxygen consumption, and CO2 production. ASO injected and control mice are individually placed in CLAMS cages and monitored over a 4-day period after acclimation to the cages for 1-2 days. The various parameters are recorded in both fasted and fed conditions. Food and water consumption are measured directly as accumulated data. Hourly files display all measurements for each parameter: volume of oxygen consumed, ml/kg per h (VO2), volume of carbon dioxide produced, ml/kg per h (VCO2), respiratory exchange ratio, heat (kcal/h), accumulated food (g), accumulated drink (g), XY total activity (all horizontal beam breaks in counts), XY ambulatory activity (minimum three different, consecutive horizontal beam breaks in counts), and Z activity (all vertical beam breaks in counts). The data are recorded during the 30-s sampling period. The CLAMS data are analyzed by normalizing with lean body mass.

In series [3] the test system is DIO mice. The series can be described thus: Insulin level in DIO mice. It is filed as in vivo, mouse. The protocol:
The mice were divided into four groups: (1) lean (non-diabetic control); (2) diabetic receiving control ASO (NC-ASO); (3) diabetic receiving ASO5; and (4) diabetic receiving ASO6. In various experiments mice were dosed intra-peritoneally with twice per week injection of ASO at […] body weight for 4 or 8 weeks. Skeletal muscles were subjected to quantitative PCR.
Further, the effect of the reduction of Hsp90ab1 protein level on plasma insulin levels was examined.

Series [4] relates to HSMM myotubes. The series can be described thus: Insulin signaling experiments in HSMM myotubes (western blot of phosphorylated Akt, ERK, GSK3β). It is filed as cell-based, human. The protocol: Human HSMM myotubes cells that were plated in 12 well plates the previous week were used. The media was aspirated and fresh media with appropriate dilutions of the NC and H3 siRNA for Hsp90 knockdown were added such that the final concentration in the wells of the plate was 100 nM. Minis TKO transfection reagent was used for transfecting the cells. The plate was then incubated at 37° C. overnight.
The media was aspirated and the cells were washed off twice—first with warm PBS and second with 0.1% BSA containing growth media. The cells were then serum starved for 2-3 hours in 0.1% differentiation media containing the appropriate inhibitors at 37° C. followed by insulin stimulation for 5 minutes (0, 10, and 100 nM insulin).
The wells were then washed once with PBS and harvested into 100 μl of RIPA buffer containing protease and phosphatase inhibitors. The plate was placed on ice and, using a cell scraper, the cells were scraped from the plate. The lysates were collected in 1.5 ml Eppendorf tubes and homogenized by using a syringe and needle. The lysates were then centrifuged at 4° C. for 10 mins at 14,000 RPM. The lysates can be stored at −20° C. for future use.
Protein content was estimated by BCA assay and samples were prepared for gel electrophoresis and western blotting as described in subsequent sections. The total volume required to load 10 μg of total protein was calculated.
The samples were loaded onto a bis-tris or a tris-glycine-SDS gel. Proteins were transferred to a PVDF or a nitrocellulose membrane using routine wet or dry transfer methods. The membranes were then blocked for at least an hour using the blocking buffer. The membranes were then cut prior to exposure to the appropriate primary antibodies diluted in blocking buffer for incubation. Primary antibodies to pAKT (p-Akt, S473), pERK(p-Erk, Phospho-p44/42 MAPK (Erk1/2) (Thr202/Tyr204), and pGSK3β (Phospho-GSK-3β (Ser9) were obtained from Cell Signaling Inc.® Other antibodies were also obtained from commercial sources. The membrane was placed in the shaker and incubated in the refrigerator (4° C.) overnight.
Visualization of proteins and quantification of western blots was performed as follows. The membranes were washed thrice using 1×PBS-T (10 minutes each). […]
Each strip of membrane was taken out arranged in a clean flat surface. […] The bands were quantified using the BIORAD® software.
HSMM myotubes were sequentially (1) transfected with 3 different siRNAs targeting HSP90AB1 for 48 hours, (2) serum starved for 3 hours, and (3) subjected to stimulation of different concentrations of insulin (0, 10, 100 nM). Signaling events downstream of insulin stimulation were assessed by western blotting for levels of total and phosphorylated Akt, Erk, and GSK3β. […]

In series [5] the test system is HSMM myotubes. The series can be described thus: Seahorse bioenergetic profiling of myotubes (OCR). It is filed as cell-based, human.

Turning to “mC*mU*mU*mC*mC*mU*T*G*A*C*C*C*T*C*C*T*C*T*mC*mC*mU*mC*mC*mA (antisense CUUCCUTGACCCTCCTCTCCUCCA; sugars from the 5' end m6 d12 m6, all phosphorothioate, methylation of C not given here) [ASO4, modified antisense oligonucleotide derived from the mouse HSP90AB1 gene]”, the “level of HSP90ab1 protein” value in the series with human Hsp90AB1 protein is “effective”.
On to “mA*mU*mG*mC*mC*mC*T*G*A*A*T*T*C*C*A*A*C*T*mG*mA*mC*mC*mU*mU (antisense AUGCCCTGAATTCCAACTGACCUU; sugars from the 5' end m6 d12 m6, all phosphorothioate, methylation of C not given here) [ASO18, modified ASO designed on homology among mouse, monkey and human HSP90ab1 genes]”, for which, in the series with human Hsp90AB1 protein, the “level of HSP90ab1 protein” value is reported as “significantly decreased; also recorded: significantly reduced”. Besides, the Hsp90AB1 protein expression entry in series [1] was “significantly decreased; also recorded: significantly reduced”.
As for NVP-HS990, the HSP90 isoform preference entry with HSP90α and HSP90β is “inhibit both the HSP90α and HSP90β isoforms”.
Turning to `O=C(O)/C=C/c1nn(Cc2ccc(Cl)cc2Cl)c2cc(C(F)(F)F)ccc12` [gamendazole], the HSP90 isoform preference result in the series with HSP90α and HSP90β is recorded as “specific for HSP90β”.
On to “mA*mU*mC*mU*mC*mC*T*T*C*T*C*C*C*G*T*T*C*C*mU*mU*mC*mU*mC*mC (antisense AUCUCCTTCTCCCGTTCCUUCUCC; sugars from the 5' end m6 d12 m6, all phosphorothioate, methylation of C not given here) [ASO2, modified antisense oligonucleotide derived from the mouse HSP90AB1 gene]”, for which, in the series with human Hsp90AB1 protein, the “level of HSP90ab1 protein” value is “effective”. Also, the heat production entry with DIO mice [2] was “improves”.
With “mC*mC*mA*mC*mU*mU*C*C*T*T*G*A*C*C*C*T*C*C*mU*mC*mU*mC*mC*mU (antisense CCACUUCCTTGACCCTCCUCUCCU; sugars from the 5' end m6 d12 m6, all phosphorothioate, methylation of C not given here) [ASO5, modified antisense oligonucleotide derived from the mouse HSP90AB1 gene]”, the fed insulin levels result in the series with DIO mice [3] is given as “significant reduction”. In addition, the Hsp90AB1 protein expression entry in series [1] is listed as “did not significantly reduce”.
With `CCc1cc(-c2n[nH]c(C)c2-c2ccc3c(c2)OCCO3)c(O)cc1O` [CCT018159], in the series on HSMM myotubes [4], the “effect on insulin signaling and bioenergetics compared with HSP90β knockdown alone” value was “less profound effect”. Further, in the series with HSMM myotubes [4] (CCT018159 and insulin), the “level of pERK” value is listed as “No significant changes; also recorded: no change” and the “level of pGSK3β” value is “No significant changes; also recorded: no change”. In addition, the “insulin stimulated phosphorylation of Akt (phospho-AKT)” value with HSMM myotubes [4] (CCT018159 then insulin, effect at the higher concentration, 10 uM) is given as “increase; also recorded: significantly enhanced”. Moreover, the “CCCP induced uncoupling response on mitochondrial metabolism” value in the series with HSMM myotubes [5] (CCT018159 at 1 μM, 3 μM, and 10 μM (FIG. 10 legend)) was “did not have a significant effect”. The “uncoupled OCR” value in the series with HSMM myotubes [5] (myotubes, CCT018159 1 μM) is given as “increased”. Also, the “uncoupled (CCCP induced) OCR” value in the series on HSMM myotubes [5] (myotubes, CCT018159, 10 uM induced greater suppression) was “decreased in a concentration dependent manner”. The “basal OCR” value in the series on HSMM myotubes [5] (myotubes, CCT018159 at different concentrations) is given as “no observed change”.
“mC*mU*mC*mU*mU*mC*C*T*C*T*G*C*C*T*C*A*T*C*mA*mU*mC*mA*mC*mU (antisense CUCUUCCTCTGCCTCATCAUCACU; sugars from the 5' end m6 d12 m6, all phosphorothioate, methylation of C not given here) [ASO13, modified ASO designed on homology among mouse, monkey and human HSP90ab1 genes]”: the “level of HSP90ab1 protein” value in the series on human Hsp90AB1 protein is “significantly decreased; also recorded: significantly reduced”. The Hsp90AB1 protein expression entry in series [1] is listed as “significantly decreased; also recorded: significantly reduced”.
Consider “mU*mC*mU*mC*mC*mU*T*C*T*C*C*C*G*T*T*C*C*T*mU*mC*mU*mC*mC*mA (antisense UCUCCUTCTCCCGTTCCTUCUCCA; sugars from the 5' end m6 d12 m6, all phosphorothioate, methylation of C not given here) [ASO1, modified antisense oligonucleotide derived from the mouse HSP90AB1 gene]”, for which the “level of HSP90ab1 protein” value with human Hsp90AB1 protein was “effective”. Besides, in the series with DIO mice [2], the heat production entry is on record as “improves”.
For the compound `C[C@@H]1C[C@H]2O[C@@H]2/C=C\C=C\C(=O)Cc2c(Cl)c(O)cc(O)c2C(=O)O1` [radicicol], in the series on HSP90α and HSP90β, the HSP90 isoform preference result was “HSP90β is more sensitive”.
Turning to “mA*mC*mU*mU*mC*mC*T*T*G*A*C*C*C*T*C*C*T*C*mU*mC*mC*mU*mC*mC (antisense ACUUCCTTGACCCTCCTCUCCUCC; sugars from the 5' end m6 d12 m6, all phosphorothioate, methylation of C not given here) [ASO3, modified antisense oligonucleotide derived from the mouse HSP90AB1 gene]”, in the series with human Hsp90AB1 protein, the “level of HSP90ab1 protein” value is given as “effective”.
